Experimental data taken from patent US11254663B2 (BRISTOL-MYERS SQUIBB COMPANY, priority 2019, dated 2022).
pEC50: −log10 of the molar value.

Molecular target: FXR (Homo sapiens (Human), UniProt Q96RI1)
Assay: FXR EC50 (FXR agonist potency reported with each Example)
Assay type: cell-based

Sequence of FXR (Q96RI1 262-486): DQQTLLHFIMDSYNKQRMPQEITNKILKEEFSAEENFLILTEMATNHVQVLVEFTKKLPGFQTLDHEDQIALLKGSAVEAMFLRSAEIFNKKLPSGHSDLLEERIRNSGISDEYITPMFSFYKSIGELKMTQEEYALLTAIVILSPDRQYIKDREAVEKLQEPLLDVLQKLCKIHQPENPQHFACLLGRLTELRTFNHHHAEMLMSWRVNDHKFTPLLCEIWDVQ

Compound	pEC50
CN(C)[C@H]1CCN(C(=O)N(CC23CCC(c4nc(C5CC5)no4)(CC2)CC3)c2cccc(-c3nc(C4CC4)no3)c2)C1 [Example 93, (S)—N-((4-(3-cyclopropyl-1,2,4-oxadiazol-5-yl)bicyclo[2.2.2]octan-1-yl)methyl)-N-(3-(3-cyclopropyl-1,2,4-oxadiazol-5-yl)phenyl)-3-(dimethylamino)pyrrolidine-1-carboxamide]	5.57
CC(C)(C)c1noc(C23CCC(CN(C(=O)C45CC(F)(C4)C5)c4cccc(-c5noc(C6(C)COC6)n5)c4)(CC2)CC3)n1 [Example 174, N-((4-(3-(tert-butyl)-1,2,4-oxadiazol-5-yl)bicyclo[2.2.2]octan-1-yl)methyl)-3-fluoro-N-(3-(5-(3-methyloxetan-3-yl)-1,2,4-oxadiazol-3-yl)phenyl)bicyclo[1.1.1]pentane-1-carboxamide]	7.40
Cc1csc(-c2cccc(N(CC34CCC(c5nc(C6CC6)no5)(CC3)CC4)C(=O)C34CC(F)(C3)C4)c2)n1 [Example 151, N-((4-(3-cyclopropyl-1,2,4-oxadiazol-5-yl)bicyclo[2.2.2]octan-1-yl)methyl)-3-fluoro-N-(3-(4-methylthiazol-2-yl)phenyl)bicyclo[1.1.1]pentane-1-carboxamide]	7.10
O=C(C1CC(C(F)F)C1)N(CC12CCC(c3nnc(C4CC4)o3)(CC1)CC2)c1cccc(-c2nc(C3CC3)no2)c1 (stereo not drawn) [Example 139, N-(3-(3-cyclopropyl-1,2,4-oxadiazol-5-yl)phenyl)-N-((4-(5-cyclopropyl-1,3,4-oxadiazol-2-yl)bicyclo[2.2.2]octan-1-yl)methyl)-3-(difluoromethyl)cyclobutane-1-carboxamide]	6.42
O=C(C1CC(F)(F)C1)N(CC12CCC(c3nc(C4CC4)no3)(CC1)CC2)c1cccc(-c2nnc(C3CC3)o2)c1 [Example 87, N-((4-(3-cyclopropyl-1,2,4-oxadiazol-5-yl)bicyclo[2.2.2]octan-1-yl)methyl)-N-(3-(5-cyclopropyl-1,3,4-oxadiazol-2-yl)phenyl)-3,3-difluorocyclobutane-1-carboxamide]	6.15
CC(C)c1nc(-c2cccc(N(CC34CCC(c5ccc(C(F)(F)F)cn5)(CC3)CC4)C(=O)C34CC(F)(C3)C4)c2)no1 [Example 187, 3-fluoro-N-(3-(5-isopropyl-1,2,4-oxadiazol-3-yl)phenyl)-N-((4-(5-(trifluoromethyl)pyridin-2-yl)bicyclo[2.2.2]octan-1-yl)methyl)bicyclo[1.1.1]pentane-1-carboxamide]	6.22
Cn1nc(C23CCC(CN(C(=O)C45CC(F)(C4)C5)c4cccc(-c5noc(C6CC6)n5)c4)(CC2)CC3)cc1C1CC1 [Example 170, N-(3-(5-cyclopropyl-1,2,4-oxadiazol-3-yl)phenyl)-N-((4-(5-cyclopropyl-1-methyl-1H-pyrazol-3-yl)bicyclo[2.2.2]octan-1-yl)methyl)-3-fluorobicyclo[1.1.1]pentane-1-carboxamide]	7.13
COc1cc(-c2cccc(N(CC34CCC(c5nc(C6CCOCC6)no5)(CC3)CC4)C(=O)C34CC(F)(C3)C4)c2)ccn1 [Example 227, 3-Fluoro-N-(3-(2-methoxypyridin-4-yl)phenyl)-N-((4-(3-(tetrahydro-2H-pyran-4-yl)-1,2,4-oxadiazol-5-yl)bicyclo[2.2.2]octan-1-yl)methyl)bicyclo[1.1.1]pentane-1-carboxamide]	6.42
CCOC(=O)c1coc(-c2cccc(N(CC34CCC(c5nc(C)no5)(CC3)CC4)C(=O)C34CC(F)(C3)C4)c2)n1 [Example 12, Ethyl 2-(3-(3-fluoro-N-((4-(3-methyl-1,2,4-oxadiazol-5-yl)bicyclo[2.2.2]octan-1-yl)methyl)bicyclo[1.1.1]pentane-1-carboxamido)phenyl)oxazole-4-carboxylate]	5.77
O=C(C1CCC(F)(F)C1)N(CC12CCC(c3nc(C4CC4)no3)(CC1)CC2)c1cccc(-c2cc(C3CC3)on2)c1 (stereo not drawn) [Example 59, N-((4-(3-cyclopropyl-1,2,4-oxadiazol-5-yl)bicyclo[2.2.2]octan-1-yl)methyl)-N-(3-(5-cyclopropylisoxazol-3-yl)phenyl)-3,3-difluorocyclopentane-1-carboxamide]	7.15
N#CC1(c2ccc(C34CCC(CN(C(=O)C56CC(F)(C5)C6)c5cccc(-c6nc(C7CC7)no6)c5)(CC3)CO4)cc2)CC1 [Example 146, N-((1-(4-(1-cyanocyclopropyl)phenyl)-2-oxabicyclo[2.2.2]octan-4-yl)methyl)-N-(3-(3-cyclopropyl-1,2,4-oxadiazol-5-yl)phenyl)-3-fluorobicyclo[1.1.1]pentane-1-carboxamide]	6.48
CC(N(C(=O)C12CC(F)(C1)C2)c1cccc(-c2cnc(C3CC3)o2)c1)C12CCC(c3nc(C4CC4)no3)(CC1)CC2 (single isomer, unassigned) [Example 216, N-(1-(4-(3-cyclopropyl-1,2,4-oxadiazol-5-yl)bicyclo[2.2.2]octan-1-yl)ethyl)-N-(3-(2-cyclopropyloxazol-5-yl)phenyl)-3-fluorobicyclo[1.1.1]pentane-1-carboxamide]	6.29
CC(C)c1noc(C23CCC(CN(C(=O)C45CC(F)(C4)C5)c4cccc(-c5nc(C6CC6)no5)c4)(CC2)CC3)n1 [Example 89, N-(3-(3-cyclopropyl-1,2,4-oxadiazol-5-yl)phenyl)-3-fluoro-N-((4-(3-isopropyl-1,2,4-oxadiazol-5-yl)bicyclo[2.2.2]octan-1-yl)methyl)bicyclo[1.1.1]pentane-1-carboxamide]	7.33
CC(C)c1nc(C23CCC(CN(C(=O)C45CC(F)(C4)C5)c4cccc(-c5nc(C6CC6)no5)c4)(CC2)CC3)no1 [Example 120, N-(3-(3-cyclopropyl-1,2,4-oxadiazol-5-yl)phenyl)-3-fluoro-N-((4-(5-isopropyl-1,2,4-oxadiazol-3-yl)bicyclo[2.2.2]octan-1-yl)methyl)bicyclo[1.1.1]pentane-1-carboxamide]	7.82
CC1(c2nc(C34CCC(CN(C(=O)C56CC(F)(C5)C6)c5cccc(-c6nnc(C7CC7)o6)c5)(CC3)CC4)no2)COC1 [Example 155, N-(3-(5-cyclopropyl-1,3,4-oxadiazol-2-yl)phenyl)-3-fluoro-N-((4-(5-(3-methyloxetan-3-yl)-1,2,4-oxadiazol-3-yl)bicyclo[2.2.2]octan-1-yl)methyl)bicyclo[1.1.1]pentane-1-carboxamide]	7.14
Cn1nc(C23CCC(CN(C(=O)C4CC(F)(F)C4)c4cccc(-c5nc(C6CC6)no5)c4)(CC2)CC3)cc1C1CC1 [Example 125, N-(3-(3-cyclopropyl-1,2,4-oxadiazol-5-yl)phenyl)-N-((4-(5-cyclopropyl-1-methyl-1H-pyrazol-3-yl)bicyclo[2.2.2]octan-1-yl)methyl)-3,3-difluorocyclobutane-1-carboxamide]	6.32
O=C(C1CC(F)(F)C1)N(CC12CCC(c3nc(CC4CC4)no3)(CC1)CC2)c1cccc(-c2nc(C3CC3)no2)c1 [Example 70, N-(3-(3-cyclopropyl-1,2,4-oxadiazol-5-yl)phenyl)-N-((4-(3-(cyclopropylmethyl)-1,2,4-oxadiazol-5-yl)bicyclo[2.2.2]octan-1-yl)methyl)-3,3-difluorocyclobutane-1-carboxamide]	6.22
O=C(N(CC12CCC(c3noc(C(F)F)n3)(CC1)CC2)c1cccc(-c2noc(C(F)F)n2)c1)C12CC(F)(C1)C2 [Example 184, N-((4-(5-(difluoromethyl)-1,2,4-oxadiazol-3-yl)bicyclo[2.2.2]octan-1-yl)methyl)-N-(3-(5-(difluoromethyl)-1,2,4-oxadiazol-3-yl)phenyl)-3-fluorobicyclo[1.1.1]pentane-1-carboxamide]	7.24
O=C(N(CC12CCC(c3nc(C4CC4)no3)(CC1)CC2)c1cccc(-n2cc(C3CC3)nn2)c1)C12CC(F)(C1)C2 [Example 219, N-((4-(3-cyclopropyl-1,2,4-oxadiazol-5-yl)bicyclo[2.2.2]octan-1-yl)methyl)-N-(3-(4-cyclopropyl-1H-1,2,3-triazol-1-yl)phenyl)-3-fluorobicyclo[1.1.1]pentane-1-carboxamide]	7.01
CC(C)(C)c1nc(C23CCC(CN(C(=O)C45CC(F)(C4)C5)c4cc(-c5nc(C6CC6)no5)ccn4)(CC2)CC3)no1 [Example 210, N-((4-(5-(tert-butyl)-1,2,4-oxadiazol-3-yl)bicyclo[2.2.2]octan-1-yl)methyl)-N-(4-(3-cyclopropyl-1,2,4-oxadiazol-5-yl)pyridin-2-yl)-3-fluorobicyclo[1.1.1]pentane-1-carboxamide]	7.32
CC(C)(O)c1nc(-c2cccc(N(CC34CCC(c5nc(C6CC6)no5)(CC3)CC4)C(=O)C34CC(F)(C3)C4)c2)cs1 [Example 31, N-((4-(3-cyclopropyl-1,2,4-oxadiazol-5-yl)bicyclo[2.2.2]octan-1-yl)methyl)-3-fluoro-N-(3-(2-(2-hydroxypropan-2-yl)thiazol-4-yl)phenyl)bicyclo[1.1.1]pentane-1-carboxamide]	6.59
COCc1nc(-c2cccc(N(CC34CCC(c5nc(C6CC6)no5)(CC3)CC4)C(=O)C3CC(C(F)F)C3)c2)cs1 (stereo not drawn) [Example 73, N-((4-(3-cyclopropyl-1,2,4-oxadiazol-5-yl)bicyclo[2.2.2]octan-1-yl)methyl)-3-(difluoromethyl)-N-(3-(2-(methoxymethyl)thiazol-4-yl)phenyl)cyclobutane-1-carboxamide]	6.47
N#CC1(c2ccc(C34CCC(CN(C(=O)C5CC(C(F)F)C5)c5cccc(-c6nc(C7CC7)no6)c5)(CC3)CO4)cc2)CC1 (stereo not drawn) [Example 141, N-((1-(4-(1-Cyanocyclopropyl)phenyl)-2-oxabicyclo[2.2.2]octan-4-yl)methyl)-N-(3-(3-cyclopropyl-1,2,4-oxadiazol-5-yl)phenyl)-3-(difluoromethyl)cyclobutane-1-carboxamide]	6.19
CCOc1ncc(-c2cccc(N(CC34CCC(c5ccc(C(C)(C)C#N)cc5)(CC3)OC4)C(=O)C34CC(F)(C3)C4)c2)o1 [Example 51, N-((1-(4-(2-cyanopropan-2-yl)phenyl)-2-oxabicyclo[2.2.2]octan-4-yl)methyl)-N-(3-(2-ethoxyoxazol-5-yl)phenyl)-3-fluorobicyclo[1.1.1]pentane-1-carboxamide]	7.60
